Here are results for one molecule from US10966995B2, “Use of secoisolariciresinol diglucosides (SDGS) and related compounds for protection against radiation and chemical damage” (THE TRUSTEES OF THE UNIVERSITY OF PENNSYLVANIA, priority 2014, dated 2021).

One assay concerns human epithelial cells. Kind of assay: BaP-induced oxidative DNA damage (gamma-H2AX levels). The format is cell-based. As to conditions: SDG 5, 10, 25, 50 and 100 μM. The source says:
Similarly, SDG prevents genotoxic stress in human epithelial cells exposed to BaP. Exposure of cells to a potent carcinogen such as BaP, induces genotoxic stress as indicated by increased levels of p53 protein (FIG. 25). […] SDG also prevents oxidative DNA damages in human epithelial cells exposed to BaP. Exposure of cells to a potent carcinogen such as BaP, induces oxidative DNA damage as indicated by increased levels of gamma-H2AX, a marker for double-stranded DNA breaks (FIG. 26). […] Furthermore, SDG prevents DNA adduct formation in human epithelial cells exposed to BaP. Exposure of cells to a potent carcinogen such as BaP, induces the formation of DNA adducts (FIG. 27). DNA adducts are pieces of DNA covalently linked to a carcinogen and is directly linked to the development of malignancy. The DNA adduct levels is decreased by the presence of SDG or its metabolites ED and EL given alone or in combination.

In assay [1] the test system is Nrf2-regulated antioxidant enzymes (AOE). Nature of the assay: SDG dosing study: antioxidant enzyme expression in lung after oral gavage. The format is in vivo, mouse. The procedure:
SDG doses of 5, 25, 50 and 100 mg/Kg body weight were administered orally to mice (n=5 per dose) and 4 hours later tissues were collected for analysis. Plasma concentrations of SDG and its bioactive metabolites ED, EL and SECO were analyzed by liquid chromatography and mass spectrometry and are expressed in ng/mL (FIG. 39) while gene expression levels of Nrf2-regulated antioxidant enzymes (AOE), an intracellular target of SDG and its metabolites, were determined in lung tissues from the same animals using qRT-PCR (FIG. 40). Gene expression levels of HO1, NQO1 and GST, increased 2-3 fold with as little as 5 mg SDG/Kg and reached an average of 6-fold increase over baseline with 100 mg/Kg SDG.

Assay [2] relates to murine primary lung fibroblasts. Kind of assay: γ-H2AX foci immunostaining, fibroblasts. The format is cell-based, mouse. As to conditions: SDG 50 μM 6 h prior IR; 2 Gy; irradiated control 30.0% at 30 min. The procedure:
(§1) Fibroblasts and endothelial cells were isolated from C57/bl6 mouse. For fibroblast isolation, mouse lungs were harvested, minced, and incubated with dispase (2 mg/ml) for 45 minutes. Pieces were plated out and fibroblasts were cultured as described previously and used between passages 3 and 10. Pulmonary microvascular endothelial cells (PMVEC) were isolated from murine lungs as described previously. Briefly, freshly harvested mouse lungs were treated with collagenase followed by isolation of cells by adherence to magnetic beads coated with mAb to platelet endothelial cell adhesion molecule (PECAM). Epithelial cells (C10) cells were originally derived from a normal BALB/c mouse lung explant and are non-tumorigenic, contact-inhibited, and have alveolar type 2 cell features at early passage.
For immunostaining of γ-H2AX, cells were plated on glass coverslips (5,000 cells/coverslip), pre-treated (6 h) with 50 μM SDG and irradiated (2 Gy). At desired time interval, cells were fixed (4% para-formaldehyde), washed and blocked with PBST (PBS+0.1% TritonX-100 containing 5% goat serum, 1% BSA). Cells were incubated with γ-H2AX primary antibody (1:200) overnight at 4° C. followed by washing with PBST (3×5 min) and incubation with secondary antibody (Alexa Fluor® 488, Invitrogen, Calif., USA) for 1 hr at RT. Nuclei were counterstained with DAPI and visualized under fluorescence microscope.

The next assay concerns mouse RAW macrophages. Nature of the assay: Asbestos-induced ROS in RAW macrophages. The format is cell-based. As to the method:
(§2) SDG blunts asbestos-induced ROS secretion by human mesothelial cells in vitro (FIG. 50). Experimental plan for detecting asbestos-induced ROS in cells: (human mesothelial) HM cells or mouse macrophages plated in 20% DMEM for 24 hours; Added 20 μM DCF in HBSS for 1 hour; Supernatant replaced with 1% DMEM containing H2O2 (100 μM), asbestos (10 μg crocidolite/cm^2) and/or SDG (50 μM); and Fluorescence level monitored up to 36 hours post-initiation of asbestos exposure.
Asbestos-Induced Oxidative Stress (ROS release) in Culture RAW Macrophages was evaluated. Cells were treated with the ROS-sensitive dye H2DCFDA for 30 min and then they were exposed to vehicle to 40 μg/cm2 asbestos fibers, or 4 uM hypochlorite solution and fluorescence intensity was measured spectrophotometrically for 90, 150 minutes and 27 hours. Asbestos-induced ROS was generated shortly post asbestos exposure and continued for the duration of the observation period (FIG. 51).

The test system of assay [3] is murine primary lung cells (epithelial cells, endothelial cells and WT fibroblasts). Nature of the assay: γ-H2AX flow cytometry (FACS) in irradiated primary lung cells. The conditions noted are these: SDG 50 μM 6 h pre-treatment; 2 Gy; all cell types. The format is cell-based, mouse. The procedure: as §1
For FACS analysis, cells were trypsinized and washed with PBS. Cells were then fixed (Fix/Perm buffer, eBioscience), for 45 minutes and washed thereafter using permeabilization wash buffer (BioLegend, USA). […] Cells were washed again with wash buffer and analyzed. The CyAn ADP (Advanced Digital Processing) flow cytometer (Dako, Denmark) Coulter, Fullerton, Calif.) was used to measure γ-H2AX and positive cells were quantified using Summit Software (Dako, Denmark).
Background: Flow cytometry measures light scatter and fluorescence of single cells or particles in a stream.

In a further assay the test system is human mesothelial cells. Nature of the assay: Asbestos-induced ROS (DCF fluorescence) in human mesothelial cells. The format is cell-based. As to conditions: asbestos 10 μg crocidolite/cm^2 or H2O2 100 μM; SDG 50 μM. As to the method: as §2
Assay [4] in a line: γ-Radiation-induced chlorination of 2-AP. An excerpt:
2-AP in PBS was exposed to hypochlorite and fluorescence spectra recorded between 360-390 nm with the emission maximum at 374 nm. The % change in 2-AP calculated.
To determine whether radiation induces nucleobase chlorination, we used the same system as above, namely 2-AP fluorescence (FIG. 19A).

SMILES strings stand for the structures.

Take `COc1cc(C[C@@H](CO[C@@H]2O[C@H](CO)[C@@H](O)[C@H](O)[C@H]2O)[C@H](CO[C@@H]2O[C@H](CO)[C@@H](O)[C@H](O)[C@H]2O)Cc2ccc(O)c(OC)c2)ccc1O` [SDG, secoisolariciresinol diglucoside]: in the assay with human epithelial cells, the gamma-H2AX levels entry is “mitigated dose-dependently”. In assay [1] (5 mg SDG/Kg oral, 4 hours), the “Gene expression levels of HO1, NQO1 and GST in lung, increase” value was 2-3 fold. In addition, the “Gene expression levels of HO1, NQO1 and GST in lung, average increase over baseline” value in assay [1] (100 mg/Kg SDG oral, 4 hours) was found to be 6 fold. Also, in assay [1] (oral SDG dosing study), the “Protein levels in lung tissues” value is “lower but yet significant increase”. In addition, in assay [2], the γ-H2AX positive cells was 22.1%±1.9. Also, in the assay with mouse RAW macrophages, the “Asbestos-induced ROS” value is “blocks asbestos-induced ROS”. Moreover, the “Number of γ-H2AX positive cells (flow cytometry)” value in assay [3] was “significantly abrogated”. For the same molecule, the ROS levels result in the assay with human mesothelial cells was “significantly lowers ROS levels to baseline levels”. In addition, the “γ-radiation-induced decrease in 2-AP fluorescence intensity” value in assay [4] is given as “prevented”.
